{"source": "patent US20240252514A1", "about": "“NEUROACTIVE STEROID FOR THE TREATMENT OF MILD COGNITIVE IMPAIRMENT ASSOCIATED WITH PARKINSON'S DISEASE” (SAGE THERAPEUTICS, INC., priority 2021, published 2024)", "assay_type_in_all_cases": "in vivo, human", "key": {"[1]": {"tested_on": "patients suffering from Mild Cognitive Impairment due to Parkinson's Disease (PD-MCI)", "assay": "Tests of Executive Functioning (MTT, OTS, SWM, DSST, 2-Back), open label study", "procedure": "(§1) The safety and tolerability of Compound 1 and its effects on cognitive, neuropsychiatric, and motor symptoms in patients suffering from Mild Cognitive Impairment due to Parkinson's Disease (PD-MCI) was evaluated in an open label study. Eligible participants with a confirmed diagnosis of idiopathic PD by 2015 Movement Disorder Society (MDS) criteria (Berardelli et al., EFNS/MDS-ES/ENS recommendations for the diagnosis of Parkinson's disease. Eur J Neurol. 2013; 20:16-34) at Screening and who met MDS Task Force Criteria for MCI in PD (excluding requirement for UK PD Brain Bank diagnostic criteria) received 3.0 mg of Compound 1 (oral dose) daily for 14 days. Participants were instructed to take the daily dose of Compound 1 in the morning within 1 hour of initiating a meal containing approximately 30 g of fat. The study protocol was as follows and is depicted in FIG. 1.\n(§2) Beginning on Day 1 and continuing through Day 14, participants self-administered 3.0 mg Compound 1 (as six 0.5-mg oral tablets), once per day in the morning within 1 hour after initiating a meal containing approximately 30 g of fat, in accordance with the guidelines provided in a nutritional information brochure. Participants continued to complete daily assessments of cognitive performance and sleep via mobile device either remotely (at home), or in the clinic at scheduled visits and tracked Compound 1 dosing and predose food intake in a participant diary.\n(§3) Eight patients (male and female) aged 50 to 75 years old with mild cognitive impairment due to Parkinson's disease received 3 mg as oral tablets of Compound 1 daily for 2-weeks.\nThe tests of Executive Functioning included (1) Multitasking Test (MTT), which assesses how well the subject manages conflicting information; (2) One Touch Stockings of Cambridge (OTS), which assesses how well the subject plans, holds onto, and manipulates information to solve a puzzle; (3) Spatial Working Memory (SWM), which assesses how well the subject develops and uses a strategy to find hidden information; (4) Digit Symbol Substitution Task (DSST), which assesses how efficiently can the subject complete a demanding task (daily measure); and (5) Two-Back Test (NBX), which asks is the symbol the same as that shown two symbols ago."}, "[2]": {"tested_on": "patients suffering from Mild Cognitive Impairment due to Parkinson's Disease (PD-MCI)", "assay": "Safety and tolerability (adverse events), open label study", "conditions": "3 mg oral daily for 14 days, follow-up to Day 28", "procedure": "as §1\nAt scheduled visits during the Treatment Period, participants completed the mobile device tasks under staff supervision. At scheduled clinic visits during the Treatment Period, safety, efficacy, and PK procedures were performed. In addition to weekly clinic visits, study staff contacted participants by telephone on Day 4 to document any TEAEs and/or changes in concomitant medications.\nParticipants were contacted by telephone on Day 21 to document any AEs and/or changes in concomitant medications. Participants returned to the clinic on Day 28 (±2 days) for a follow-up visit.\nThe Primary objective of the study was to assess (1) the percentage of Participants With at Least One Treatment-Emergent Adverse Event (TEAE) (Time Frame: Up to Day 28)."}, "[3]": {"tested_on": "patients suffering from Mild Cognitive Impairment due to Parkinson's Disease (PD-MCI)", "assay": "Tests of Social Cognition (ERT, EBT), open label study", "conditions": "3 mg oral daily for 14 days, vs baseline, Clinic/Weekly", "procedure": "as §1\nBeginning on Day 1 and continuing through Day 14, participants self-administered 3.0 mg Compound 1 (as six 0.5-mg oral tablets), once per day in the morning within 1 hour after initiating a meal containing approximately 30 g of fat, in accordance with the guidelines provided in a nutritional information brochure. […]"}, "[4]": {"tested_on": "patients suffering from Mild Cognitive Impairment due to Parkinson's Disease (PD-MCI)", "assay": "Tests of Learning and Memory (PAL, PRM, Verbal Recognition Memory, Spatial Span), open label study", "procedure": "as §1, §2, §3\nThe tests of Learning and Memory included Paired Associates Learning (PAL), which assesses how well the subject remembers the location of hidden objects; Pattern Recognition Memory (PRM), which assesses how well the subject remembers a pattern; and Verbal Recognition Memory […], which assesses how well the subject stores and retrieves verbal information."}, "[5]": {"tested_on": "patients suffering from Mild Cognitive Impairment due to Parkinson's Disease (PD-MCI)", "assay": "Tests of Attention and Psychomotor Performance (RTI, PVT), open label study", "procedure": "as §1, §2, §3\nThe tests of Attention and Psychomotor Performance included Reaction Time (RTI), which assesses how fast the subject can respond to a stimulus (weekly measure); Psychomotor Vigilance Task (PVT), which assesses how fast can the subject respond to a stimulus (daily measure)."}, "[6]": {"conditions": "PD-MCI patients, 3 mg oral daily for 14 days, vs baseline, Clinic/Weekly"}, "[7]": {"conditions": "3 mg oral daily for 14 days, vs baseline, Clinic/Weekly"}}, "note": "“Also recorded” adds a separate entry of the source.", "data": [{"smiles": "C[C@H](CC[C@](C)(O)C(F)(F)F)[C@H]1CC[C@H]2[C@@H]3CC=C4C[C@@](C)(O)CC[C@]4(C)[C@H]3CC[C@]12C", "note": "[Compound 1]", "values": [{"measurement": "Trend, Executive Functioning: 2-Back", "setting": "[1]; [6]", "value": "Improvement"}, {"measurement": "Trend, Executive Functioning: Multitasking", "setting": "[1]; [6]", "value": "Improvement"}, {"measurement": "Trend, Executive Functioning: One Touch Stockings", "setting": "[1]; [6]", "value": "Improvement"}, {"measurement": "Trend, Executive Functioning: Spatial working Memory", "setting": "[1]; [6]", "value": "Improvement"}, {"measurement": "Trend, Executive Functioning: DSST", "setting": "[1]; PD-MCI patients, 3 mg oral daily for 14 days, vs baseline, Mobile/Daily", "value": "Improvement"}, {"measurement": "Performance in the cognitive domain of executive function (five tests, overall)", "setting": "[1]; PD-MCI patients, 3 mg oral daily, during 14 days of treatment, vs baseline (FIGS. 2-3)", "value": "performance improvements from baseline; also recorded: improved performance"}, {"measurement": "DSST improvement over baseline", "setting": "[1]; PD-MCI subjects, 3 mg oral daily, Treatment Day 14 (FIG. 3)", "value": "~27", "unit": "%"}, {"measurement": "Serious adverse events", "setting": "[2]", "value": "no serious adverse events"}, {"measurement": "Tolerability", "setting": "[2]", "value": "generally well tolerated"}, {"measurement": "Treatment emergent adverse events related to the compound", "setting": "[2]", "value": "no treatment emergent adverse events were determined to be related to Compound 1"}, {"measurement": "Trend, Social Cognition: Emotional Bias", "setting": "[3]", "value": "Improvement"}, {"measurement": "Trend, Social Cognition: Emotional Recognition", "setting": "[3]", "value": "Neutral"}, {"measurement": "Trend, Learning and Memory: Paired Associates", "setting": "[4]; [7]", "value": "Improvement"}, {"measurement": "Trend, Learning and Memory: Pattern recognition", "setting": "[4]; [7]", "value": "Improvement"}, {"measurement": "Trend, Learning and Memory: Spatial Span", "setting": "[4]; [7]", "value": "Neutral"}, {"measurement": "Trend, Learning and Memory: Verbal Memory", "setting": "[4]; [7]", "value": "Improvement"}, {"measurement": "Performance in the domains of learning and memory (overall)", "setting": "[4]; 3 mg oral daily, 14 days, vs baseline (FIGS. 4 and 5)", "value": "improved performance from baseline"}, {"measurement": "Trend, Attention & Psychomotor Speed: Reaction Time", "setting": "[5]; [7]", "value": "Neutral"}, {"measurement": "Trend, Attention & Psychomotor Speed: Psychomotor Vigilance", "setting": "[5]; 3 mg oral daily for 14 days, vs baseline, Mobile/Daily", "value": "Neutral"}, {"measurement": "Performance in tests of attention and psychomotor speed (overall)", "setting": "[5]; 3 mg oral daily, 14 days (FIG. 6)", "value": "neutral results; also recorded: no appreciable change"}]}]}
